What was measured:
[1] = target: cSRC (h) (Homo sapiens, UniProt P12931); assay: Kinase profiling C3.9 cSRC human; format: biochemical; conditions: test concentration of 10^−6 M
Description: The in vitro inhibition of a panel of kinases was assessed using either the glass-fiber filter technology as described by Davies, S. P. et al., Biochem J. (2000), 351; p. 95-105. In the glass-fiber filter technology the activity of the kinase of interest is measured using an appropriate substrate that is incubated with the aforementioned kinase protein in the presence of (^33P) radiolabeled ATP. (^33P) Phosporylation of the substrate is subsequently measured as radioactivity bound on a glassfiber-filter.
All kinases are pre-diluted to a 10× working concentration prior to addition into the assay. The composition of the dilution buffer for each kinase is detailed below.
All substrates are dissolved and diluted to working stocks in de-ionised water, apart from histone H1 that is stored in 10× working stock in 20 mM MOPS pH 7.4.
In a final reaction volume of 25 μl, cSRC (h) (5-10 mU) is incubated with 8 mM MOPS pH 7.0, 0.2 mM EDTA, 250 μM KVEKIGEGTYGVVYK (Cdc2 peptide), 10 mM MgAcetate and [γ-^33P-ATP] (specific activity approx. 500 cpm/pmol, concentration as required). The reaction is initiated by the addition of the MgATP mix. After incubation for 40 minutes at room temperature, the reaction is stopped by the addition of 5 μl of a 3% phosphoric acid solution.
10 μl of the reaction is then spotted onto a P30 filtermat and washed three times for 5 minutes in 75 mM phosphoric acid and once in methanol prior to drying and scintillation counting.

[2] = target: GSK-3β (Homo sapiens, UniProt P49841); assay: GSK-3 kinase assay (C1), GSK-3β; format: biochemical; conditions: 1 μM ATP; for IC50: read-out: C1 Score β
Chain of GSK-3β (P49841 whole entry, species assumed): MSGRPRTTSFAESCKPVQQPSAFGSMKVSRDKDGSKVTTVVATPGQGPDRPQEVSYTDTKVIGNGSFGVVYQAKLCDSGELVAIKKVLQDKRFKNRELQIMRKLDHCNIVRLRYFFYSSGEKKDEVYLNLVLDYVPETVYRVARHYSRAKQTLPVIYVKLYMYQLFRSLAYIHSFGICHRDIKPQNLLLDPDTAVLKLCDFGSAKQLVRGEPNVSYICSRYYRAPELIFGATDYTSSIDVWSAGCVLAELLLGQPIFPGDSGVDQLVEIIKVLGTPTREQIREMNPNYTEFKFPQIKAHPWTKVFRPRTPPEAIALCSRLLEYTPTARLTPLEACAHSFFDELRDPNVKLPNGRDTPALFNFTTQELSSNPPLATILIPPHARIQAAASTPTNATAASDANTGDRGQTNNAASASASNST
Procedure, shortened: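 Radiometric SPA at room temperature in 25 mM Tris pH 7.4 with 10 mM MgCl2, 1 mM DTT, 5.7 ng/μl GSK-3β or 0.25 ng/μl GSK-3α, 5 μM biotinylated CREB peptide and 1 μM ATP plus ^33P-ATP. Stopped after 1 h; IC50 from dose-response versus no-compound control, reported as pIC50 score bands.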

Chain of cSRC (h) (P12931 whole entry): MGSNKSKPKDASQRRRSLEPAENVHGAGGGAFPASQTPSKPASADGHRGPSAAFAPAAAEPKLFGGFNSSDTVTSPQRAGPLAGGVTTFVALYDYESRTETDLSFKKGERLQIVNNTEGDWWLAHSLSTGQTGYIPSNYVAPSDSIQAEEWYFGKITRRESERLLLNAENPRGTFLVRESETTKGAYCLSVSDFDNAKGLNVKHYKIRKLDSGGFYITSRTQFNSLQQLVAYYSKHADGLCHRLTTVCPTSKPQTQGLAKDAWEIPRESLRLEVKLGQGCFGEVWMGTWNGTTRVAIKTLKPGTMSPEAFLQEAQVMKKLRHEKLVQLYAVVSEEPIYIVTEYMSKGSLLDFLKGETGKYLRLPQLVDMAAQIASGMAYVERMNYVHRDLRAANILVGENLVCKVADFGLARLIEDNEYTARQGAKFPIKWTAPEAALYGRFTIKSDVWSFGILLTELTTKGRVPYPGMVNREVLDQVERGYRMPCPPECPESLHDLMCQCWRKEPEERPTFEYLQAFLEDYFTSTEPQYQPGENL

| C3.9 score [1] | IC50 [2] [nM] | melting point [°C] | C1 Score β [2] | Compound |
| --- | --- | --- | --- | --- |
| 1 (Score 1 = 10-30% inhibition) |  |  |  | CCN1CC(=O)NCCCc2cccc(c2)-c2ncnc(n2)Nc2cccc(c2)C1 [Compound 54] |
| 2 (Score 2 = 30-60% inhibition) | < 10 | 201.9 to 203.3 |  | CN1CCCc2cc(ccn2)-c2ncnc(n2)Nc2cccc(c2)CNC(=O)C1 [Compound 7] |
|  | < 10 |  |  | O=C1CN2CCN(CC2)Cc2cc(Cl)cc(c2)Nc2ncnc(n2)-c2ccnc(c2)CCCN1 [Compound 41] |
| 3 (Score 3 = 60-80% inhibition) | < 10 | 267.5 to 269.3 |  | CN1CC(=O)NCC#Cc2cc(ccn2)-c2ncnc(n2)Nc2cccc(c2)C1 [Compound 1] |
| 2 (Score 2 = 30-60% inhibition) | 10 to 100 |  |  | O=C1NCCCc2cc(ccn2)-c2ncnc(n2)Nc2cccc(c2)CN2C[C@H](O)C[C@@H]12 [Compound 14] |
| 4 (Score 4 = >80% inhibition) |  |  |  | O=C1NCCCc2cc(ccc2F)-c2ncnc(n2)Nc2cc(Cl)cc(c2)CN[C@H]1CO [Compound 71] |
| 1 (Score 1 = 10-30% inhibition) | < 10 |  |  | O=C1CN2CCN(CC2)Cc2cccc(c2)Nc2ncnc(n2)-c2ccnc(c2)CCCN1 [Compound 36] |
|  | < 10 |  |  | CCN1CCCc2cc(ccn2)-c2ncnc(n2)Nc2cccc(c2)CCNC(=O)C1 [Compound 30] |
| 1 (Score 1 = 10-30% inhibition) |  |  |  | O=C1NCCCc2cncc(c2)-c2ncnc(n2)Nc2cccc(c2)CN[C@H]1CO [Compound 81] |
| 1 (Score 1 = 10-30% inhibition) | 100 to 1000 |  |  | CN1CCN(CCN2CCC(=O)NCCCc3cc(ccn3)-c3ncnc(n3)Nc3cccc(c3)C2)CC1 [Compound 11] |
| 2 (Score 2 = 30-60% inhibition) | 10 to 100 |  |  | CN1CCCC(=O)NCCCc2cc(ccn2)-c2ncnc(n2)Nc2cccc(c2)C1 [Compound 13] |
| 2 (Score 2 = 30-60% inhibition) | < 10 |  |  | CN1CC(=O)NCCCc2cc(ccn2)-c2ncnc(n2)Nc2cccc(c2)C1 [Compound 10] |
|  |  |  | 4 (Score 4=pIC50 value>8) | CN1CC(=O)NCCCc2cc(ccn2)-c2ncnc(n2)Nc2cccc(c2)C1 [Compound 8] |
|  | < 10 |  |  | CN1CC(=O)NCCCc2cc(ccn2)-c2ncnc(n2)Nc2cc(Cl)cc(c2)C1 [Compound 33] |
|  |  |  | 4 (Score 4=pIC50 value>8) | O=C1CN2CCN(CC2)Cc2cccc(c2)Nc2ncnc(n2)-c2ccnc(c2)CCCN1 [Compound 9] |
| 4 (Score 4 = >80% inhibition) | < 10 |  |  | CN1CC(=O)NC/C(Cl)=C/c2cc(ccn2)-c2ncnc(n2)Nc2cccc(c2)C1 [Compound 2] |
| 2 (Score 2 = 30-60% inhibition) | 10 to 100 |  |  | CN1CCC(=O)NCCCc2cc(ccn2)-c2ncnc(n2)Nc2cccc(c2)C1 [Compound 3] |
| 2 (Score 2 = 30-60% inhibition) | 10 to 100 |  |  | O=C1CCN2CCN(CC2)Cc2cccc(c2)Nc2ncnc(n2)-c2ccnc(c2)CCCN1 [Compound 35] |
|  | < 10 |  |  | CCN1CC(=O)NCCCc2cc(ccn2)-c2ncnc(n2)Nc2cc(Cl)cc(c2)C1 [Compound 34] |
| 1 (Score 1 = 10-30% inhibition) | 10 to 100 |  |  | O=C1NCCCc2cc(ccn2)-c2ncnc(n2)Nc2cccc(c2)CN2CCCC1C2 (centres unmarked) [Compound 15] |
| 2 (Score 2 = 30-60% inhibition) | 100 to 1000 |  |  | O=C1NCCCc2cc(ccn2)-c2ncnc(n2)Nc2cccc(c2)CN2CCCC12 (centres unmarked) [Compound 12] |
